We go through one compound from patent US9439906B2, “Dosing regimen associated with long acting injectable paliperidone esters” (Janssen Pharmaceutica NV, priority 2007, dated 2016).

For the test, the target named is D2 receptor (Homo sapiens, UniProt P14416). Briefly: PET central D2 occupancy studies SWE-1 and SIV-101. Type of test: in vivo. The text has this: It has been empirically derived and is currently widely excepted that 65-70% occupancy is needed for antipsychotics to show clinical efficacy (Farde et al.), i.e. improvement on the PANSS scale. A too high occupancy (80-85%) will typically increase the risk to develop EPS. In order to determine the central D2 occupancy, PET trials in human healthy volunteers are typically performed.
Chain of D2 receptor (P14416 whole entry): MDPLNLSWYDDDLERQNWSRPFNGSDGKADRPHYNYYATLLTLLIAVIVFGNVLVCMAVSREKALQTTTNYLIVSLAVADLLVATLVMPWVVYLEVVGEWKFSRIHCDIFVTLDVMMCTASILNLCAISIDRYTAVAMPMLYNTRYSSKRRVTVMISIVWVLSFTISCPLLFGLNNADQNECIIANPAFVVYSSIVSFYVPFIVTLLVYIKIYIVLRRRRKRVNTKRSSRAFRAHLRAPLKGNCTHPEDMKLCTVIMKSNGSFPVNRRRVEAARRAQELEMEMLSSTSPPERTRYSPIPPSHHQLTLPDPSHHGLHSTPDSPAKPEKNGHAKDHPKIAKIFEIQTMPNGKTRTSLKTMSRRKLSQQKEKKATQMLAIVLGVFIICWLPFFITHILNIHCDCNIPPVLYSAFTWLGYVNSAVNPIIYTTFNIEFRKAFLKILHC

SMILES strings stand for the structures. pKd: −log10 of the molar value.

As for `Cc1nc2n(c(=O)c1CCN1CCC(c3noc4cc(F)ccc34)CC1)CCCC2O` (centres unmarked) [paliperidone, 9-hydroxy-risperidone], the negative logarithm of the Kd (pKd) was 7.82 to 7.99. Besides, the “exposure range for efficacy without an increased risk to develop EPS (target exposure range)” value (calculated using the 65-85% D2 occupancy window) was 7.5 to 40 ng/mL.
